Experiments:
Format in all cases: biochemical
[1] = biological target: T1, ISW2 (Saccharomyces cerevisiae, UniProt Q08773); experiment: competitive inhibitor assay against ATP; details: competitive with ATP at active site
[2] = biological target: T1, ISW2; experiment: nucleosome mobilization, native gel shift; details: 70N0 nucleosomes, 90 or 800 µM ATP, 5 mM MgCl2, pH 7.6, 20°C
[3] = biological target: ISW1a (Saccharomyces cerevisiae, UniProt P38144); experiment: nucleosome mobilization, native gel shift; details: 70N0 nucleosomes, 90 or 800 µM ATP, 5 mM MgCl2, pH 7.6, 20°C
ISW1a, sequence (P38144 whole entry): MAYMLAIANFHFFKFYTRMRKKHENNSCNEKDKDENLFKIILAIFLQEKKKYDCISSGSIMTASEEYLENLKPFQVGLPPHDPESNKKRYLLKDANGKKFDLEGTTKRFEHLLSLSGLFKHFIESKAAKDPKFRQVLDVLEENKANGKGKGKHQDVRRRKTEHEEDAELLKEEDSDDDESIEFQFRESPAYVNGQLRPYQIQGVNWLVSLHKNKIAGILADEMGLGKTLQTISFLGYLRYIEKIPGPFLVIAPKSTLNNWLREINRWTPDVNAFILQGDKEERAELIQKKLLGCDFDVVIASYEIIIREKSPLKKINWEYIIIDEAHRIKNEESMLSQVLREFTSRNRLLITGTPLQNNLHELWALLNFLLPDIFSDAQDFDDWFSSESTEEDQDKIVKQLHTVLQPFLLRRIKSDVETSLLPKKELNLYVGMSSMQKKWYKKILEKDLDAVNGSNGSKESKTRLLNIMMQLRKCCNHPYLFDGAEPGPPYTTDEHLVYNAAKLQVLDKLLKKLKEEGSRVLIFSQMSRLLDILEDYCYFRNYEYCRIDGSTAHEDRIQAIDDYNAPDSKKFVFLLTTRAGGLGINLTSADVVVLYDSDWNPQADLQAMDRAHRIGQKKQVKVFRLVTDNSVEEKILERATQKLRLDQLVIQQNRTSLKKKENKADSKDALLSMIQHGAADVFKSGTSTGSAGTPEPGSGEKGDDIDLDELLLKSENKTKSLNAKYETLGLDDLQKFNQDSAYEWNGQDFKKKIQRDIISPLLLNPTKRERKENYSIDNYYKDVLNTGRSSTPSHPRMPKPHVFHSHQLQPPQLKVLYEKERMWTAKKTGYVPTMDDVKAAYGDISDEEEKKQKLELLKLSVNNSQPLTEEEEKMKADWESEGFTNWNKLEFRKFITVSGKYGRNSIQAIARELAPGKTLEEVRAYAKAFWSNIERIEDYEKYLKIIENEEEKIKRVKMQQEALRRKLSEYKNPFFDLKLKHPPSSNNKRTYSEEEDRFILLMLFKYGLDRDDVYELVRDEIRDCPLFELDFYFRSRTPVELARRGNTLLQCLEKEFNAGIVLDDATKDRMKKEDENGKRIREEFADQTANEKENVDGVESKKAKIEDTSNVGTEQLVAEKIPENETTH
ISW1a, sequence (P43596 whole entry partner): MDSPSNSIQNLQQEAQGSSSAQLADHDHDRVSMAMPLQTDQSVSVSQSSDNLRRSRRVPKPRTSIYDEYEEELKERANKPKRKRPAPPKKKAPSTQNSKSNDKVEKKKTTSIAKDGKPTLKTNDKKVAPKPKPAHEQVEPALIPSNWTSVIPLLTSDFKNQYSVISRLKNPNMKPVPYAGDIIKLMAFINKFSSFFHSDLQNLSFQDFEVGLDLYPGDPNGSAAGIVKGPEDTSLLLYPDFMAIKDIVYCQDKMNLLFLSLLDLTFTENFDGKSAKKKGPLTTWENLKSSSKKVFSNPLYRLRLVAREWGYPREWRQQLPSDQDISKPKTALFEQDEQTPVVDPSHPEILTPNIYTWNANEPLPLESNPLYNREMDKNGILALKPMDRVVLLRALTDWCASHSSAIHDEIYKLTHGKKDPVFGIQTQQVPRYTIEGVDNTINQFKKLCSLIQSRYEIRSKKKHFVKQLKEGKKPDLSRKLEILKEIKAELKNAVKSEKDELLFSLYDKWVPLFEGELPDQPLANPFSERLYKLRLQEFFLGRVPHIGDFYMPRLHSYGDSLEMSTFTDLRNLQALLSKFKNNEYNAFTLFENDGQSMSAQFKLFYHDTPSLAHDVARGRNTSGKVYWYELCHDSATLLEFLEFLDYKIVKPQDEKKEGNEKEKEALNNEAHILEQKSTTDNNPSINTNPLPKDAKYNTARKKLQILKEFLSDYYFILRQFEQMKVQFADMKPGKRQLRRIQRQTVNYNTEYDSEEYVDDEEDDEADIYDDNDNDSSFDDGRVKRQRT

T1 sequence (Q08773 whole entry): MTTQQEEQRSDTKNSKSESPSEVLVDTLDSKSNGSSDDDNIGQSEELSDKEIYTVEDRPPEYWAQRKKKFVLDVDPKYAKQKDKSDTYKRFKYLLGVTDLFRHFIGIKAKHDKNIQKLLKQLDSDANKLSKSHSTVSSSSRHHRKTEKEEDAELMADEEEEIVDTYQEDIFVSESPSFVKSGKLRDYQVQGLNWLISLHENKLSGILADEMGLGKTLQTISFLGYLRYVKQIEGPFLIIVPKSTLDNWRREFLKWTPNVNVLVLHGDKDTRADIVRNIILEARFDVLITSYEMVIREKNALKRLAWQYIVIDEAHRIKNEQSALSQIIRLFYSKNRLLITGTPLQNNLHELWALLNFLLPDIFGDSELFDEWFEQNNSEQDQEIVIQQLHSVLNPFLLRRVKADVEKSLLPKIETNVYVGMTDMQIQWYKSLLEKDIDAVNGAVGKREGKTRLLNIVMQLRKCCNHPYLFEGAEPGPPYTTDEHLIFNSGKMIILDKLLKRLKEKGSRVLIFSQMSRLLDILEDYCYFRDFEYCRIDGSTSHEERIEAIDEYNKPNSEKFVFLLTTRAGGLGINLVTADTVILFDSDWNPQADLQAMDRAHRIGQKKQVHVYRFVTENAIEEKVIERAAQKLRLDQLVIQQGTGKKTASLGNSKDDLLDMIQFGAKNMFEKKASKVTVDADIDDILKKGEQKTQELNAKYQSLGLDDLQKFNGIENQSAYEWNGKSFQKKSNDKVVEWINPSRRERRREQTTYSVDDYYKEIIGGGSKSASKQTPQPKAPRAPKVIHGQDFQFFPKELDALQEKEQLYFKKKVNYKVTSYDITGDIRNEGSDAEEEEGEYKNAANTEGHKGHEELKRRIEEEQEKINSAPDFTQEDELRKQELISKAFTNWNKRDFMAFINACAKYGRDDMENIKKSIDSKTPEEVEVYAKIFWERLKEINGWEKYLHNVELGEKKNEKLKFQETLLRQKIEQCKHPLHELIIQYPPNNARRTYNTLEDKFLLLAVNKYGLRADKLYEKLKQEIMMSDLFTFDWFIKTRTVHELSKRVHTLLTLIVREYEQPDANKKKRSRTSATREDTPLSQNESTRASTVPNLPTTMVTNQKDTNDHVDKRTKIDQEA
T1 sequence (P53125 whole entry partner): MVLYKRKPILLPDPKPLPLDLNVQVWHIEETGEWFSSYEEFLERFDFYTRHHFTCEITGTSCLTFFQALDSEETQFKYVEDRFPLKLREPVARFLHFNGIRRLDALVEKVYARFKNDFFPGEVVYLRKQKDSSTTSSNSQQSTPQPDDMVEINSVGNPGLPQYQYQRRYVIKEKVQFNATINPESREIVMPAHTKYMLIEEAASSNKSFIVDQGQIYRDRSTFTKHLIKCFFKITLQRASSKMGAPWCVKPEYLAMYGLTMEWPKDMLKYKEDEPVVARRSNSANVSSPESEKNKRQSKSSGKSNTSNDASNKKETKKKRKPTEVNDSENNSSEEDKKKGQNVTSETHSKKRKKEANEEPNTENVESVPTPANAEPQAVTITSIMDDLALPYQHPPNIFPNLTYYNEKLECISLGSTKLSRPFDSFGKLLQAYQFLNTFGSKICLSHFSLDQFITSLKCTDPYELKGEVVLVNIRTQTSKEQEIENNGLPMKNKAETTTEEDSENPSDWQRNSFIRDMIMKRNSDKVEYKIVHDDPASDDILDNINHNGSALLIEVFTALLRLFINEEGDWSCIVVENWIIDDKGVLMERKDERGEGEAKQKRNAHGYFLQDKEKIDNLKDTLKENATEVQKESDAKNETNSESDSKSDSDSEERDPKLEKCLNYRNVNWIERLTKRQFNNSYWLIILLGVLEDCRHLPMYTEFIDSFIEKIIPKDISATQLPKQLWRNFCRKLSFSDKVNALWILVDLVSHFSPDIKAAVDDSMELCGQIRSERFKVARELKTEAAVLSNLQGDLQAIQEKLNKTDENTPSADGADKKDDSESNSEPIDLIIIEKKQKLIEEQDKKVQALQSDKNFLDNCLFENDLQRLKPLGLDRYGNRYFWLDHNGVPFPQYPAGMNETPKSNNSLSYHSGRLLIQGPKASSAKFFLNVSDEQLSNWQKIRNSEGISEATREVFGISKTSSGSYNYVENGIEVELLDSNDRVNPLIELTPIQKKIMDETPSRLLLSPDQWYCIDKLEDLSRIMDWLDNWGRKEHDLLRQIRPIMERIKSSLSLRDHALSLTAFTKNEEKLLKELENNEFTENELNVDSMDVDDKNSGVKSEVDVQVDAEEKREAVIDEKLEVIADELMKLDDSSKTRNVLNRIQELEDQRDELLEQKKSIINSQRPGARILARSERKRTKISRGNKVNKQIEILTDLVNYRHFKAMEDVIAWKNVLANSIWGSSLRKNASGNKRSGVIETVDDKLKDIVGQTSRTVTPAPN
T1 sequence (Q04603 whole entry partner): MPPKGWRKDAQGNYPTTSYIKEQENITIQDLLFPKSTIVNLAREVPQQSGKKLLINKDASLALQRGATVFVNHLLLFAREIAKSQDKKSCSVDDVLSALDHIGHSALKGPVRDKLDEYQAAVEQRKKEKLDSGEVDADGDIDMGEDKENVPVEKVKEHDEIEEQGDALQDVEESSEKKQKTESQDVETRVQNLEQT
T1 sequence (P40366 whole entry partner): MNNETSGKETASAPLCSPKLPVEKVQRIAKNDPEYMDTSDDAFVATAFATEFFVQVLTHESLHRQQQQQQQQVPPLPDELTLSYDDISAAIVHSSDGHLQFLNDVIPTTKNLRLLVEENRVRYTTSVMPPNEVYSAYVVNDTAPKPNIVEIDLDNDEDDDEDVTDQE

SMILES | competitive inhibitor assay against ATP [1] | nucleosome mobilization, native gel shift [2] | nucleosome mobilization, native gel shift [3]
Nc1ncnc2c1ncn2[C@@H]1O[C@H](COP(=O)(O)OP(=O)(O)O)[C@@H](O)[C@H]1O [ADP] | ADP and γ-S-ATP were shown to be bound at the active site of ISW2 |  | 
Nc1ncnc2c1ncn2[C@@H]1O[C@H](COP(=O)(O)OP(=O)(O)OP(=O)(O)O)[C@@H](O)[C@H]1O [ATP] |  | Template commitment of ISW2 required initiation of the remodeling process rather than just ISW2 binding | ATP was found to be required for template commitment by ISW1a
